We go through 22 molecules from ChEMBL document CHEMBL4265944, “Novel amide derivatives of 1,3-dimethyl-2,6-dioxopurin-7-yl-alkylcarboxylic acids as multifunctional TRPA1 antagonists and PDE4/7 inhibitors: A new approach for the treatment of pain” (Eur J Med Chem, 2018).

Each structure is given as a SMILES string. Activity calls are given as the source filed them. The calls are words filed in the database; no cut-off is given here.

Test [1] concerns the target Transient receptor potential cation channel subfamily A member 1 (Homo sapiens) (UniProt O75762). Briefly: Antagonist activity at human TRPA1 expressed in HEK293 cells assessed as decrease in flufenamic acid-evoked increase in intracellular calcium level at 100 uM measured for 180 secs with 1 sec interval by Fluo4-AM dye-based fluorescence assay relative to control. It counts as cell-based.

Test [2] concerns the target High affinity 3',5'-cyclic-AMP phosphodiesterase 7A (Homo sapiens, UniProt Q13946). Briefly: Inhibition of recombinant human PDE7A using cAMP as substrate after 10 mins by PDE-Glo Phosphodiesterase Assay.
Test [3] deals with 3',5'-cyclic-AMP phosphodiesterase 4B (Homo sapiens, UniProt Q07343). Briefly: Inhibition of recombinant human PDE4B using cAMP as substrate after 10 mins by PDE-Glo Phosphodiesterase Assay.
The subject of test [4] is Rattus norvegicus. Briefly: Anti-inflammatory activity in Wistar rat assessed as inhibition of carrageenan-induced paw edema at 20 mg/kg, ip measured at 2 hrs post dose relative to control. Format: functional.
Test [5] has as its system Mus musculus. Briefly: Antiinflammatory activity in formalin-induced nociception Swiss CD-1 mouse model assessed as time spent on licking or biting formalin injected right hind paw during neurogenic phase at 10 mg/kg, ip measured during phase 1 (reference value: 97 +/- 6.86 sec). Format: functional.
The subject of test [6] is Rattus norvegicus. Briefly: Anti-inflammatory activity in Wistar rat assessed as inhibition of carrageenan-induced paw edema at 20 mg/kg, ip measured at 1 hr post dose relative to control. It counts as functional.
In test [7] the test system is Rattus norvegicus. Briefly: Anti-inflammatory activity in Wistar rat assessed as inhibition of carrageenan-induced paw edema at 40 mg/kg, ip measured at 3 hrs post dose relative to control. It counts as functional.
For test [8], the target named is Transient receptor potential cation channel subfamily A member 1 (Homo sapiens) (UniProt O75762). Briefly: Antagonist activity at human TRPA1 expressed in HEK293 cells assessed as decrease in flufenamic acid-evoked increase in intracellular calcium level at 10 uM measured for 180 secs with 1 sec interval by Fluo4-AM dye-based fluorescence assay relative to control. Format: cell-based.

In test [9] the test system is Rattus norvegicus. Briefly: Anti-inflammatory activity in Wistar rat assessed as inhibition of carrageenan-induced paw edema at 100 mg/kg, ip measured at 1 hr post dose relative to control. It counts as functional.
Test [10] has as its system Mus musculus. Briefly: Antiinflammatory activity in formalin-induced nociception Swiss CD-1 mouse model assessed as time spent on licking or biting formalin injected right hind paw during neurogenic phase at 2.5 mg/kg, ip measured during phase 1 (reference value: 97 +/- 6.86 sec). It counts as functional.
Test [11] concerns Rattus norvegicus. Briefly: Anti-inflammatory activity in Wistar rat assessed as inhibition of carrageenan-induced paw edema at 40 mg/kg, ip measured at 2 hrs post dose relative to control. Format: functional.
The test system of test [12] is Mus musculus. Briefly: Antiinflammatory activity in formalin-induced nociception ip dosed Swiss CD-1 mouse model assessed as time spent on licking or biting formalin injected right hind paw […] measured during phase 2. Format: functional. Conditions: Swiss CD-1, ip.
The subject of test [13] is Mus musculus. Briefly: Antiinflammatory activity in formalin-induced nociception Swiss CD-1 mouse model assessed as time spent on licking or biting formalin injected right hind paw during neurogenic phase at 2.5 mg/kg, ip measured during phase 2 (reference value: 158.3 +/- 12.34 sec). Format: functional.
Test [14] concerns Mus musculus. Briefly: Antiinflammatory activity in formalin-induced nociception Swiss CD-1 mouse model assessed as time spent on licking or biting formalin injected right hind paw during neurogenic phase at 5 mg/kg, ip measured during phase 2 (reference value: 158.3 +/- 12.34 sec). Format: functional.
Test [15] has as its system Rattus norvegicus. Briefly: Anti-inflammatory activity in Wistar rat assessed as inhibition of carrageenan-induced paw edema at 100 mg/kg, ip measured at 3 hrs post dose relative to control. It counts as functional.
Test [16] deals with Mus musculus. Briefly: Antiinflammatory activity in formalin-induced nociception Swiss CD-1 mouse model assessed as time spent on licking or biting formalin injected right hind paw during neurogenic phase at 5 mg/kg, ip measured during phase 1 (reference value: 97 +/- 6.86 sec). It counts as functional.
Test [17] has as its system Rattus norvegicus. Briefly: Anti-inflammatory activity in Wistar rat assessed as inhibition of carrageenan-induced paw edema at 20 mg/kg, ip measured at 3 hrs post dose relative to control. Format: functional.
Test [18] deals with Rattus norvegicus. Briefly: Anti-inflammatory activity in Wistar rat assessed as inhibition of carrageenan-induced paw edema at 100 mg/kg, ip measured at 2 hrs post dose relative to control. Format: functional.
Test [19] concerns Rattus norvegicus. Briefly: Anti-inflammatory activity in Wistar rat assessed as inhibition of carrageenan-induced paw edema at 40 mg/kg, ip measured at 1 hr post dose relative to control. Format: functional.
Test [20] has as its target Transient receptor potential cation channel subfamily A member 1 (Homo sapiens) (UniProt O75762). Briefly: Antagonist activity at human TRPA1 expressed in HEK293 cells assessed as decrease in flufenamic acid-evoked increase in intracellular calcium level at 1 uM measured for 180 secs with 1 sec interval by Fluo4-AM dye-based fluorescence assay relative to control. Format: cell-based.

For test [21], the system named is Mus musculus. Briefly: Antiinflammatory activity in formalin-induced nociception Swiss CD-1 mouse model assessed as time spent on licking or biting formalin injected right hind paw during neurogenic phase at 10 mg/kg, ip measured during phase 2 (reference value: 158.3 +/- 12.34 sec). It counts as functional.
In test [22] the test system is Rattus norvegicus. Briefly: Antiallodynic activity in Wistar rat assessed as reduction in oxaliplatin-induced neuropathic pain in late phase by measuring paw withdrawal force at 5 to 10 mg/kg, ip measured after 60 mins by Von Frey test. It counts as functional, organism-based.
Test [23] concerns Rattus norvegicus. Briefly: Antiallodynic activity in Wistar rat assessed as reduction in oxaliplatin-induced neuropathic pain in early phase by measuring paw withdrawal force at 5 to 10 mg/kg, ip measured after 60 mins by Von Frey test. It counts as functional, organism-based.

3',5'-cyclic-AMP phosphodiesterase 4B, sequence (Q07343 whole entry): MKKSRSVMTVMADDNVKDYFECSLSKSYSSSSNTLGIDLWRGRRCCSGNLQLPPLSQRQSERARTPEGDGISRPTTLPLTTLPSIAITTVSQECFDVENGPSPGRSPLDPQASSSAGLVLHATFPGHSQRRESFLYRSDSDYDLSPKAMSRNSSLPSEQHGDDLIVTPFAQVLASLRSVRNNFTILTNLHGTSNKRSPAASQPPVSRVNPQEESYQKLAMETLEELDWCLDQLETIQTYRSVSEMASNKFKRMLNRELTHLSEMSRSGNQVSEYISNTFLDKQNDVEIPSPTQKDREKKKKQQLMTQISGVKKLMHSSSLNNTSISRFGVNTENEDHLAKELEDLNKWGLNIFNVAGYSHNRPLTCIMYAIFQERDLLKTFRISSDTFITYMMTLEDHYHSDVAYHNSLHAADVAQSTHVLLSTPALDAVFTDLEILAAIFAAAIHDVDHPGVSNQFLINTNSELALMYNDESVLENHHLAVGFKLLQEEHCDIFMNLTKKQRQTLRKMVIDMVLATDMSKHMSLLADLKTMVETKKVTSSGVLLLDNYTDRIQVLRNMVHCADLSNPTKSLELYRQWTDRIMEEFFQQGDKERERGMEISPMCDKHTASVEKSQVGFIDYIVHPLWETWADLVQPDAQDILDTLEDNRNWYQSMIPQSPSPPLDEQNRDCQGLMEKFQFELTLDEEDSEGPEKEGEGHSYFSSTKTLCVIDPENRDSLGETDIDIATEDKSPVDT
Transient receptor potential cation channel subfamily A member 1 (Homo sapiens), sequence (O75762 whole entry): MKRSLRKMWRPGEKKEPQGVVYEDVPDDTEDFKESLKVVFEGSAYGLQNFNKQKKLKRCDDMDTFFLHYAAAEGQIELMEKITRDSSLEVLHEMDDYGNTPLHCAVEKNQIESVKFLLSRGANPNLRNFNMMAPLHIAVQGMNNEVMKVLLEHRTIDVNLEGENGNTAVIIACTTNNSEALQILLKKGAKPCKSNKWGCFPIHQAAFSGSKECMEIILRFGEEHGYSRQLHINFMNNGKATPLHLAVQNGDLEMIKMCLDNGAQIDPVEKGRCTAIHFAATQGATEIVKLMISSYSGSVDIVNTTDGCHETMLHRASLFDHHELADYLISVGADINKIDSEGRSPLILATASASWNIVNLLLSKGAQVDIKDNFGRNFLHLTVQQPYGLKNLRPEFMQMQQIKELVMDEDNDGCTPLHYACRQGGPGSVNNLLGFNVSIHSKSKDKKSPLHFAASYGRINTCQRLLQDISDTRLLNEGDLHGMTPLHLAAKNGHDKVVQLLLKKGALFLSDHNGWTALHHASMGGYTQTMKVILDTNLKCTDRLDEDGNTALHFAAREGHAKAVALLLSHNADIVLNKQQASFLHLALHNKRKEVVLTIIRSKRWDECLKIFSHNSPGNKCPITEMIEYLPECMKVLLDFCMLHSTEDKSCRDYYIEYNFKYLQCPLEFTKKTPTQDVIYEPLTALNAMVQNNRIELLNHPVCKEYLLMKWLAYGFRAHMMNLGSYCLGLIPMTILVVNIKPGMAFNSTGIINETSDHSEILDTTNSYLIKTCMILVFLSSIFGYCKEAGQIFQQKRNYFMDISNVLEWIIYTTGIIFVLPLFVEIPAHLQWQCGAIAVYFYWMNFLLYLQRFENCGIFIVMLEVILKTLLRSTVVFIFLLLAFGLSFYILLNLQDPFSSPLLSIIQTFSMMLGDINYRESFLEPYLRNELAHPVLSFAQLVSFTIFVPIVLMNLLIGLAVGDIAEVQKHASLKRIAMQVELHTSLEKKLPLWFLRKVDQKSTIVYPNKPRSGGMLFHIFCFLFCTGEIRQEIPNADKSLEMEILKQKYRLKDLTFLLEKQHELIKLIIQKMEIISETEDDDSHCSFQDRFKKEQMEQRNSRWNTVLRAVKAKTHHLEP
High affinity 3',5'-cyclic-AMP phosphodiesterase 7A, sequence (Q13946 whole entry): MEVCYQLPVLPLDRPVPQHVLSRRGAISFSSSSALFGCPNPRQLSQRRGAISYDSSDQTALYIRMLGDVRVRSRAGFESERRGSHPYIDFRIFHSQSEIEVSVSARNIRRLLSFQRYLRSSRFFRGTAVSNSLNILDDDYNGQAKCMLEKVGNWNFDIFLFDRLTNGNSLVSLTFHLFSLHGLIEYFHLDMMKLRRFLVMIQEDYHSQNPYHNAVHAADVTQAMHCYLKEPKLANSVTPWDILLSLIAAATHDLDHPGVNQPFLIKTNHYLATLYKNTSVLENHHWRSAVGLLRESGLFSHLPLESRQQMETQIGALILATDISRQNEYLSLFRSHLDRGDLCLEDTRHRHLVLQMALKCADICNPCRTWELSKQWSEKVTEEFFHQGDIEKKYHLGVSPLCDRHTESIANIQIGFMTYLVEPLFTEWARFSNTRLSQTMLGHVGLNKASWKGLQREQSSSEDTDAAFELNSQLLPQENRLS

For `COc1nc2c(c(=O)n(C)c(=O)n2C)n1CCCC(=O)Nc1ccc(C(C)(C)C)cc1`, the inhibition in test [1] was found to be 13%. Moreover, the IC50 in [2] amounted to 19.8 µM; in [3] it was 87.5 µM.

As for `CC(C)c1ccc(NC(=O)Cn2cnc3c2c(=O)n(C)c(=O)n3C)cc1`, the inhibition in vivo at 20 mg/kg in the test with Rattus norvegicus [4] was determined as 0.02%; in the test on Rattus norvegicus [6], 4.7%; with Rattus norvegicus [17], 10%. The Time with Mus musculus [5] is given as 71 s; with Mus musculus [10] it was 82.83 s; with Mus musculus [13], 111.33 s; with Mus musculus [14], 76.45 s; in the test on Mus musculus [16], 73.83 s; in the test on Mus musculus [21], 13.9 s. For the same molecule, the inhibition turned out to be 43% in [1], 13% in test [8] and 0% in test [20]. The inhibition in vivo at 40 mg/kg in the test with Rattus norvegicus [7] turned out to be 25.6%; with Rattus norvegicus [11] it was 23.5%; in the test with Rattus norvegicus [19], 12.1%. Further, the inhibition in vivo at 100 mg/kg in the test with Rattus norvegicus [9] was 24.1%; in the test on Rattus norvegicus [15], 48.3%; in the test on Rattus norvegicus [18], 48.2%. The half-inhibitory concentration (IC50) in [2] and in test [3] was > 200 µM in each case. The 50% effective dose (ED50) with Mus musculus [12] stood at 33.8 mg/kg.

For the molecule `CCOc1nc2c(c(=O)n(C)c(=O)n2C)n1CC(=O)Nc1ccc(Cl)cc1`, the inhibition in test [1] was 7%. Moreover, the IC50 in test [2] and in [3] was > 200 µM in each case.

In the case of `CCOc1nc2c(c(=O)n(C)c(=O)n2C)n1CCCC(=O)Nc1ccc(C(C)(C)C)cc1`, the inhibition in test [1] turned out to be 0%. In addition, the values for the IC50 in [2] and in [3] were 54.3 µM and 42.5 µM, respectively.

Regarding `CCOc1nc2c(c(=O)n(C)c(=O)n2C)n1CCCC(=O)Nc1ccc(C(C)C)cc1`, the inhibition in [1] was found to be 10%. In addition, the IC50 is 96.3 µM in test [2] and 32.3 µM in test [3].

`COc1nc2c(c(=O)n(C)c(=O)n2C)n1CC(=O)Nc1ccc(C(C)C)cc1`: the inhibition in test [1] was found to be 39%; in test [8] it was 13%; in [20], 4%. In addition, the IC50 in test [2] and in [3] was > 200 µM throughout.

Regarding `CCOc1nc2c(c(=O)n(C)c(=O)n2C)n1CC(=O)Nc1cccc(Cl)c1`, the inhibition in test [1] is 5%. Further, the IC50 in [2] and in [3] was > 200 µM each time.

Turning to `COc1nc2c(c(=O)n(C)c(=O)n2C)n1CCCC(=O)NCc1ccccc1Cl`, the inhibition in test [1] is 16%. In addition, the IC50 in test [2] and in test [3] was > 200 µM each time.

For `CCOc1nc2c(c(=O)n(C)c(=O)n2C)n1CC(=O)NCc1ccccc1Cl`, the inhibition in test [1] was 7%. Moreover, the IC50 in test [2] and in test [3] was > 200 µM in each case.

For the molecule `CCOc1nc2c(c(=O)n(C)c(=O)n2C)n1CC(=O)Nc1ccc(C(C)C)cc1`, in test [1], the inhibition stood at 20%. For the same molecule, the IC50 in test [2] and in test [3] was > 200 µM each time.

For the molecule `CCCOc1nc2c(c(=O)n(C)c(=O)n2C)n1CCCC(=O)Nc1ccc(C(C)CC)cc1` (centres undefined), the inhibition in test [1] was found to be 5%. The IC50 is 9.06 µM in test [2] and 16.8 µM in test [3].

With `CCCCOc1nc2c(c(=O)n(C)c(=O)n2C)n1CCCC(=O)Nc1ccc(C(C)CC)cc1` (centres undefined), the inhibition in test [1] is 14%. Moreover, the 50% inhibitory concentration (IC50) is 20 µM in [2] and 110 µM in test [3].

`COc1nc2c(c(=O)n(C)c(=O)n2C)n1CC(=O)NCc1ccccc1Cl`: the inhibition in [1] stood at 3%. The IC50 in test [2] and in test [3] was > 200 µM each time.

For the molecule `COc1nc2c(c(=O)n(C)c(=O)n2C)n1CCCC(=O)Nc1cccc(Cl)c1`, in test [1], the inhibition was found to be 9%. The IC50 in test [2] and in test [3] was > 200 µM throughout.

As to `COc1nc2c(c(=O)n(C)c(=O)n2C)n1CCCC(=O)Nc1ccc(Cl)cc1`, in [1], the inhibition is 15%. The IC50 in [2] and in test [3] was > 200 µM throughout.

As to `CC(C(=O)O)c1cccc(C(=O)c2ccccc2)c1` (centres undefined) [KETOPROFEN], the values for the inhibition in vivo at 20 mg/kg in the test with Rattus norvegicus [4], in the test on Rattus norvegicus [6] and in the test on Rattus norvegicus [17] were 54.2%, 23.3% and 66%, respectively.

As to `CCCOc1nc2c(c(=O)n(C)c(=O)n2C)n1CCCC(=O)Nc1cc(C(C)(C)C)ccc1O`, the values for the inhibition in [1], in test [8] and in test [20] were 38%, 1% and 3%, respectively. In addition, the values for the IC50 in [2] and in test [3] were 41.1 µM and 14.7 µM, respectively.

Regarding `CC(C)C[C@H](CN)CC(=O)O`, the outcome with Rattus norvegicus [22] and in the test with Rattus norvegicus [23] was Active.

With `CCCOc1nc2c(c(=O)n(C)c(=O)n2C)n1CCCC(=O)Nc1ccc(C(C)C)cc1`, in [1], the inhibition came to 11%. The IC50 in test [2] is 37.6 µM; in [3], 17.8 µM.

Consider `COc1nc2c(c(=O)n(C)c(=O)n2C)n1CC(=O)Nc1cccc(Cl)c1`, for which the inhibition in [1] was determined as 2%. Also, the half-inhibitory concentration (IC50) in test [2] and in test [3] was > 200 µM throughout.

Turning to `COc1nc2c(c(=O)n(C)c(=O)n2C)n1CCCC(=O)Nc1ccc(C(C)C)cc1`, the inhibition in test [1] stood at 18%. The IC50 in test [2] and in test [3] was > 200 µM throughout.

For the molecule `CCCOc1nc2c(c(=O)n(C)c(=O)n2C)n1CCCC(=O)Nc1ccc(C(C)(C)C)cc1`, the inhibition worked out at 52% in [1], 5% in test [8] and 5% in [20]. The IC50 in test [2] turned out to be 7.76 µM; in test [3], 21.1 µM.
